We go through two compounds from ChEMBL document CHEMBL1135764, “Synthesis and evaluation of Glypsi(PO(2)R-N)Pro-containing pseudopeptides as novel inhibitors of the human cyclophilin hCyp-18” (J Med Chem, 2002).

Activity calls are given as the source filed them. No cut-off for these calls is given here.

The subject of test [1] is cyclophilin A hCyp-18 (Homo sapiens). As to the kind of experiment: Inhibitory activity against Human Cyclophilin hCyp-18 Peptidyl-prolyl isomerase by using the standard trypsin-coupled PPIase (peptidyl-prolyl isomerases) assay at a concentration of 100 uM.
For test [2] the test system is unchanged. Nature of the test: Inhibitory activity against Human Cyclophilin hCyp-18 Peptidyl-prolyl isomerase by using the standard uncoupled PPIase (peptidyl-prolyl isomerases) assay at a concentration of 500 uM.
For test [3] the test system is unchanged. Nature of the test: Inhibitory activity against Human Cyclophilin hCyp-18 Peptidyl-prolyl isomerase by using the standard uncoupled PPIase (peptidyl-prolyl isomerases) assay at a concentration of 500 uM;NI-no inhibition.

As for `COC(=O)Cc1ccc(NC(=O)[C@H](Cc2ccccc2)NC(=O)C2CCCN2P(=O)(O)CNC(=O)[C@H](C)NC(C)=O)cc1` (stereo partly drawn), in test [1], the Inhibition stood at 0%.

In test [2], `CCOP(=O)(CNC(=O)[C@H](C)NC(C)=O)N1CCCC1C(=O)N[C@H](CNc1ccc([N+](=O)[O-])cc1)Cc1ccccc1` (stereo partly drawn) registered an Inhibition of 30%. Also, the NI result in test [3] was “inactive”.
